Article PMC11396751, “Design, Synthesis, and Anticancer Activity of Novel Enmein-Type Diterpenoid Derivatives Targeting the PI3K/Akt/mTOR Signaling Pathway” (Molecules, 2024)

Tests used:
HepG2 cells = assay: MTT anti-proliferative assay, HepG2; assay type: cell-based, human
Procedure: (§1) A series of novel enmein-type diterpenoid derivatives, 5a–m, were synthesized by introducing a side chain containing a carbamate moiety at the C-6 position of compound 4. The anticancer activities of 5a–m were tested against three human cancer cell lines and one human normal cell line by MTT assay.
(§2) Human non-small cell lung cancer cell lines (A549), human liver cancer cell lines (HepG2), human breast cancer cell lines (MCF-7), and human normal cell lines (L-02) were purchased from the cell bank of the Chinese Academy of Sciences. All cells were placed in RPMI-1640 medium (added 10% fetal bovine serum, […]) and cultured in an aseptic environment with 5% CO2 at 37 °C.
(§3) All derivatives were evaluated for their anti-proliferative activities against three cancer cell lines and one normal cell line by MTT assay. The cells in the logarithmic growth phase were inoculated into 96-well plates (3 × 10^3 cells/well) and incubated for 48 h in a sterile environment with 5% CO2 at 37 °C to make them attach via cell adhesion; then, the cells were co-incubated with target compounds for 48 h. After that, MTT solution (10 µL/well) was added to the cell culture medium to continue incubation for 4 h, following which the medium was replaced with DMSO (150 µL/well). The absorbance values at 490 nm were determined using an enzyme meter (Safire 2, Tecan, Männedorf, Switzerland) and further converted to half-inhibitory concentration values of these compounds.

L-02 cells = assay: MTT anti-proliferative assay, normal L-02 cells; assay type: cell-based; conditions: means ± SD of three experiments
Procedure: as §1, §2, §3

A549 cells [1] = assay: Apoptosis rate, Annexin V-FITC/PI, flow cytometry; assay type: cell-based, human; conditions: 48 h
Procedure: To further confirm the capacity of 7h to induce apoptosis in cancer cells, A549 cells were treated with 7h, detected using Annexin V-FITC/PI staining, and the apoptosis rate was detected by flow cytometry.
A549 cells were inoculated into 6-well plates and attached via cell adhesion. Then, gradient concentrations (0, 2, 4, and 8 µM) of 7h was added and co-incubated for 48 h. The cells were gathered and prepared as cell suspensions according to the method described in Section 4.2.3. The cell suspension was treated with Annexin V-FITC/PI staining solution, and the data were gathered using a flow cytometer (FACS Calibur, BD, Milpitas, CA, USA) and analyzed using Flow Jo software. Three attempts were performed for each treatment to eliminate experimental bias.

A549 cells [2] = assay: Apoptosis morphology, AO/EB double staining; assay type: cell-based, human; conditions: A549, 2, 4 and 8 µM, 48 h
Procedure: To explore whether compound 7h could induce apoptosis in cancer cells, A549 cells were treated with different concentrations (0, 2, 4, and 8 µM) of 7h and then stained with AO/EB double staining. In the blank control group, normal cells were stained green with AO staining solution with intact nuclei.
A549 cells were inoculated into 24-well plates and attached via cell adhesion. Then, gradient concentrations (0, 2, 4, and 8 µM) of 7h were added and co-incubated for 48 h. The cells were cleaned with ice-cold PBS, stained with AO/EB, mixed, and then incubated in cells for 5 min in darkness at 25 °C. The apoptosis morphology of the cells in each group was observed and photographed using a laser confocal microscope (LSM710, Zeiss, Oberkochen, Germany).

[3] = A549, highest concentration (8 µM per Figure 4b)

## C=C1C(=O)C23C(=O)OC45CCC(C)(C)C6C(OC(=O)CCC(=O)N7CCC(c8noc9cc(F)ccc89)CC7)OCC64C2CCC1C3O5 (single isomer, unassigned; ent-6) [Compound 7h, ent-6β,14α-Dihydroxy-(1,7–1,14)-epoxy-7,15-dioxo-6,20-hemiketal-6,7-seco-16-kaurene-6β-yl 4-(4-(6-fluorobenzo[d]isoxazol-3-yl)piperidin-1-yl)-4-oxobutanoate]
HepG2 cells; HepG2 cells
  anticancer activity in words, HepG2: low micro-molar-level anticancer activities
HepG2 cells; Homo sapiens, HepG2, MTT, 48 h, means ± SD of three experiments
  IC50: 6.1 ± 1.24 µM
L-02 cells; Homo sapiens, L02, 48 h
  IC50: > 100 µM
L-02 cells; human normal cells, 48 h
  IC50: > 50 µM
A549 cells [1]; [3]
  late apoptosis: 41.8%
  percentage of total apoptosis: 58.00%
A549 cells [1]; A549, lowest concentration (2 µM per Figure 4b)
  percentage of total apoptosis: 5.38%
A549 cells [2]
  apoptosis morphology (AO/EB): generated large amounts of apoptotic cells
